{"source": "patent US5608095A", "about": "“Alkyl-4-silyl-phenols and esters thereof as antiatherosclerotic agents” (Hoechst Marion Roussel, Inc., priority 1996, dated 1997)", "key": {"[1]": {"tested_on": "serum cholesterol, LDL, HDL, triglycerides", "experiment": "Serum lipids and lipoprotein cholesterol in cholesterol-fed female New Zealand White rabbits", "assay_type": "in vivo", "conditions": "Oryctolagus cuniculus, po, 168 h, rabbit serum, diet 0.4%, 7 days", "protocol": "(§1) Five independent experiments were performed in the following manner. […] Female New Zealand White rabbits (Hazelton, ~2.0-2.3 kg) were fed 0.2% cholesterol enriched rabbit chow (Purina #5322) with or without 0.4% MDL compound (except, MDL 108,804 at 0.26% and MDL 103,491 repeated at 0.6%). The MDL compounds were solubilized in 100% ethanol. MDL 108,208 was not soluble in 100% ethanol, but it was soluble in diethyl ether:ethanol (3:2 by volume). The chow was sprayed with the MDL mixtures and allowed to dry overnight in a chemical fume hood. Control chow was sprayed with ethanol. Rabbits were fed 100 grams food per day for 7 days (0.6% MDL 103,491 were fed for 14 days); water was available ad libitum. On day 7, rabbits (fasted overnight) were bled (~2 mL) from marginal ear vein; 0.6% MDL 103,491 treated rabbits were tested on day 14. They were euthanized by carbon dioxide overdose. The total body and liver weights were recorded in grams. Food consumption was recorded as grams.cndot.day^-1 .cndot.rabbit^-1. Aliquots of fresh serum were used for clinical chemistries, lipoprotein cholesterol determination, thiobarbituric acid reactive substances (TBARS) and compound and metabolite concentrations in serum. Livers (~5 gram aliquots) were frozen at -20° C. for compound and metabolite concentration determination at a later time.\nBlood was allowed to clot at room temperature for 30 minutes. Serum was obtained after centrifugation for 10 min at 5° C. at 3000 rpm in a Beckman GPKR centrifuge with a GH rotor. Fresh serum was analyzed by a COBAS MIRA autoanalyzer (Roche Diagnostics) using Roche diagnostic reagents for total cholesterol (CHOL, kit #44334) and triglyceride (TG, kit #44120). Cholesterol and triglycerides were calculated as mg/dL.\nLipoprotein fractions (very low density lipoprotein, VLDL, low density lipoprotein, LDL and high density lipoprotein, HDL) were separated on a Sepharose 6HR column (1×30 cm, Pharmacia) attached to a Waters Powerline HPLC system. Fifty μL of serum were injected onto the column and eluted with phosphate buffered saline, pH 7.4, at a flow rate of 0.5 mL/min. Cholesterol reagent (Roche Diagnostics, kit #44334, diluted with 20 mL water and then with 20 mL of 0.9% saline) was added at 0.2 mL/min to the post column eluant and incubated in a knitted PFTE Kratos reaction coil (Applied Biosystems) at 37° C. for 5 min. Absorbance was measured at 500 nm. The lipoprotein subfractions were quantitated as follows: [formula]"}, "[2]": {"tested_on": "oxidation of serum lipids", "experiment": "TBARS assay, serum of cholesterol-fed rabbits", "assay_type": "in vivo, female New Zealand White rabbits", "conditions": "Oryctolagus cuniculus, po, 168 h; rabbit serum, diet 0.4%, 7 days; read-out: TBARS, percent of control", "protocol": "as §1\nTBARS are a qualitative indication of the oxidation of lipids in a sample. In this assay the oxidation of serum lipids is initiated with CuSO4, resulting in the formation of aldehydes, such as malondialdehyde (MDA). Upon incubation with thiobarbituric acid, the absorbance of the aldehydes can be detected at 530-540 nm. TBARS values which are lower than control serum values indicate the relative ability of a compound to inhibit the oxidation. TBARS were measured as follows: 50 μL of serum were mixed with 50 μL of 0.9% saline and 400 μL of a 5 mM CuSO4 solution and incubated at 37° C. for 5 hr. The reactions were stopped by addition of 1.0 mL of 20% trichloroacetic acid. Then 1.0 mL of 0.67% thiobarbituric acid in 0.05N sodium hydroxide was added, mixed, and the samples incubated for 30 min at 90° C. Samples were centrifuged briefly to pellet undissolved material, and the supernatants were transferred to a 96-well microtiter plate. Absorbances were measured at 540 nm using a Biotek model EL311 microplate reader. The nmoles of MDA produced were calculated from a standard curve of 0 to 10 nmoles of MDA prepared from malonaldehyde bis(dimethylacetal). Serum samples from treated rabbits were compared to serum samples from control rabbits that received no MDL compound."}, "[3]": {"experiment": "Food consumption, body and liver weight in cholesterol-fed rabbits", "assay_type": "in vivo, female New Zealand White rabbits", "conditions": "diet 0.4%, 7 days", "protocol": "as §1"}, "[4]": {"experiment": "HPLC quantitation of compound and metabolite concentration in rabbit serum and liver", "assay_type": "in vivo, female New Zealand White rabbits", "conditions": "diet 0.4%, 7 days", "protocol": "as §1\nSerum and liver concentrations of parent compounds and the metabolites, bisphenol and diphenoquinone, were determined by reverse phase HPLC using a Waters 990 Powerline system. Livers (1 gram) were homogenized with 5.0 mL PBS, pH 7.4, using a Polytron tissue homogenizer at setting 5 for 20-30 seconds. Serum or liver homogenates were extracted as follows: 100 μL of either serum or homogenate were added to 2.0 mL diethyl ether:ethanol (3:1) while vortexing the tube. The sample tubes were capped and centrifuged for 10 min at 5° C. at 3500 rpm in a Beckman GPKR centrifuge with a GH 3.7 rotor. The supernatants were transferred to clean tubes and dried under N2. Samples were reconstituted with 200 μL of acetonitrile:hexane:0.1M ammonium acetate (90:6.5:3.5, by vol.). Then, 100 μL were injected onto a Waters Deltapak C18-300 Å column, and eluted with an 83% acetonitrile:17% water mobile phase at a flow rate of 1.5 mL/min. Absrobances at the wavelengths of 240, 254, and 420 nm were recorded. Compound concentrations were calculated from known quantities of authentic parent compounds after correction for recovery; the range of recovery from spiked samples was 40 to 100%. The lowest detectable limit for this class of compounds was ~0.5 μg/mL. Concentrations were calculated as μg/mL of serum and μg/g of liver."}, "[5]": {"experiment": "Solubility in solvent for spraying on chow", "assay_type": "physicochemical", "protocol": "as §1"}}, "note": "Read-outs that look alike come from different tables or passages of the source."}
{"smiles": "COc1ccc([Si](C)(COc2cc(C(C)(C)C)c(O)c(C(C)(C)C)c2)c2ccc(OC)cc2)cc1", "note": "[MDL 108,208]", "values": [{"measurement": "response vs control in vivo at 0.4 %", "setting": "[1]; read-out: HDL cholesterol, percent of control", "value": 97, "unit": "%"}, {"measurement": "response vs control in vivo at 0.4 %", "setting": "[1]; read-out: LDL cholesterol, percent of control", "value": 117, "unit": "%"}, {"measurement": "response vs control in vivo at 0.4 %", "setting": "[1]; read-out: TRIG (triglycerides), percent of control", "value": 107, "unit": "%"}, {"measurement": "response vs control in vivo at 0.4 %", "setting": "[1]; read-out: chol tot. (total cholesterol), percent of control", "value": 109, "unit": "%"}, {"measurement": "response vs control in vivo at 0.4 %", "setting": "[2]", "value": 89, "unit": "%"}, {"measurement": "food (grams eaten per day per rabbit), percent of control", "setting": "[3]", "value": 100, "unit": "%"}, {"measurement": "body wt., percent of control", "setting": "[3]; rabbit", "value": 97, "unit": "%"}, {"measurement": "lw/bw (liver weight/body weight), percent of control", "setting": "[3]; rabbit", "value": 103, "unit": "%"}, {"measurement": "Liver Parent = parent compound concentration", "setting": "[4]; rabbit liver", "value": 0, "unit": "µg/g"}, {"measurement": "Serum Parent = parent compound concentration", "setting": "[4]; rabbit serum", "value": 0, "unit": "µg/mL"}, {"measurement": "solubility in 100% ethanol", "setting": "[5]; 100% ethanol", "value": "not soluble"}, {"measurement": "solubility in diethyl ether:ethanol", "setting": "[5]; diethyl ether:ethanol (3:2 by volume)", "value": "soluble"}]}
